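These data come from cells grown in 96-well plates and exposed to compound for 48 hours at five concentrations. TGI is the concentration that stops growth completely.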
Columns and labels:
Experiment in all cases: NCI anticancer screen, dose series, 48 h
[1] = tested on: MDA-MB-231 breast
[2] = tested on: ACHN renal
[3] = tested on: UACC-62 melanoma
[4] = tested on: SNB-19 CNS
[5] = tested on: MALME-3M melanoma
[6] = tested on: A498 renal
[7] = tested on: RXF 393 renal
[8] = tested on: MDA-MB-435
[9] = tested on: T-47D breast
[10] = tested on: KM12 colon
[11] = tested on: SK-MEL-2 melanoma
[12] = tested on: DU-145 prostate
[13] = tested on: NCI/ADR-RES ovarian
[14] = tested on: IGROV1 ovarian
[15] = tested on: SK-OV-3 ovarian
[16] = tested on: HL-60(TB) leukemia
[17] = tested on: MCF7 breast
[18] = tested on: OVCAR-4 ovarian
[19] = tested on: NCI-H522 lung
[20] = tested on: SK-MEL-28 melanoma
[21] = tested on: HS 578T breast
[22] = tested on: HCC-2998 colon
[23] = tested on: MDA-N
[24] = tested on: NCI-H226 lung
[25] = tested on: SF-268 CNS
[26] = tested on: HCT-116 colon
[27] = tested on: COLO 205 colon
[28] = tested on: OVCAR-3 ovarian
[29] = tested on: SK-MEL-5 melanoma
[30] = tested on: HT29 colon
[31] = tested on: CCRF-CEM leukemia
[32] = tested on: K-562 leukemia
[33] = tested on: HCT-15 colon
[34] = tested on: PC-3 prostate
[35] = tested on: SNB-75 CNS
[36] = tested on: A549 NSCLC
[37] = tested on: MOLT-4 leukemia
[38] = tested on: SF-295 CNS
[39] = tested on: NCI-H460 lung
[40] = tested on: OVCAR-5 ovarian
[41] = tested on: LOX IMVI melanoma
[42] = tested on: SW-620 colon
[43] = tested on: TK-10 renal
[44] = tested on: OVCAR-8 ovarian
[45] = tested on: CAKI-1 renal
[46] = tested on: HOP-92 NSCLC
[47] = tested on: RPMI-8226 leukemia
[48] = tested on: 786-0 renal
[49] = tested on: UACC-257 melanoma
[50] = tested on: SR leukemia
[51] = tested on: SF-539 CNS
[52] = tested on: HOP-62 NSCLC
[53] = tested on: NCI-H23 lung
[54] = tested on: BT-549 breast
[55] = tested on: EKVX NSCLC
[56] = tested on: SN12C renal
[57] = tested on: UO-31 renal
[58] = tested on: U251 CNS
[59] = tested on: M14 melanoma
[60] = tested on: SNB-78 CNS
[61] = tested on: LXFL 529 NSCLC
[62] = tested on: DMS 114 small cell lung
[63] = tested on: M19-MEL melanoma

CCC(CC)C(=O)OC[n+]1cccc(-c2c(COC(=O)NC(C)C)c(COC(=O)NC(C)C)c3n2CCC3)c1
TGI [1]: > 100 µM | TGI [2]: > 100 µM | TGI [3]: > 100 µM | TGI [4]: > 100 µM | TGI [5]: > 100 µM | TGI [6]: > 100 µM | TGI [7]: > 100 µM | TGI [8]: > 100 µM | TGI [9]: > 100 µM | TGI [10]: > 100 µM | TGI [11]: > 100 µM | TGI [12]: > 100 µM | TGI [13]: > 100 µM | TGI [14]: > 100 µM | TGI [15]: > 100 µM | TGI [16]: > 100 µM | TGI [17]: > 100 µM | TGI [18]: > 100 µM | TGI [19]: > 100 µM | TGI [20]: > 100 µM | TGI [21]: > 100 µM | TGI [22]: > 100 µM | TGI [23]: > 100 µM | TGI [24]: > 100 µM | TGI [25]: > 100 µM | TGI [26]: > 100 µM | TGI [27]: > 100 µM | TGI [28]: > 100 µM | TGI [29]: > 100 µM | TGI [30]: > 100 µM | TGI [31]: > 100 µM | TGI [32]: > 100 µM | TGI [33]: > 100 µM | TGI [34]: > 100 µM | TGI [35]: > 100 µM | TGI [36]: > 100 µM | TGI [37]: > 100 µM | TGI [38]: > 100 µM | TGI [39]: > 100 µM | TGI [40]: > 100 µM | TGI [41]: > 100 µM | TGI [42]: > 100 µM | TGI [43]: > 100 µM | TGI [44]: > 100 µM | TGI [45]: > 100 µM | TGI [46]: > 100 µM | TGI [47]: > 100 µM | TGI [48]: > 100 µM | TGI [49]: > 100 µM | TGI [50]: > 100 µM | TGI [51]: > 100 µM | TGI [52]: > 100 µM | TGI [53]: > 100 µM | TGI [54]: > 100 µM | TGI [55]: > 100 µM | TGI [56]: > 100 µM | TGI [57]: > 100 µM | TGI [58]: > 100 µM | TGI [59]: > 100 µM

CCN(CC)CCN=Cc1c(O)c(O)c(C(C)C)c2cc(C)c(-c3c(C)cc4c(C(C)C)c(O)c(O)c(C=NCCN(CC)CC)c4c3O)c(O)c12
TGI [2]: 8.37 µM | TGI [60]: 5.6 µM | TGI [3]: 6.03 µM | TGI [61]: 3.11 µM | TGI [4]: 8.86 µM | TGI [5]: 17 µM | TGI [7]: 5.31 µM | TGI [10]: 3.92 µM | TGI [11]: 5.17 µM | TGI [14]: 12.5 µM | TGI [15]: 12.4 µM | TGI [18]: 10.1 µM | TGI [19]: 3.4 µM | TGI [62]: 3.76 µM | TGI [20]: 12.5 µM | TGI [22]: 9.62 µM | TGI [25]: 34.6 µM | TGI [26]: 6.02 µM | TGI [27]: 14.5 µM | TGI [28]: 4.61 µM | TGI [30]: 3.83 µM | TGI [31]: 1.45 µM | TGI [32]: 3 µM | TGI [35]: 22.6 µM | TGI [37]: 4.36 µM | TGI [38]: 4.45 µM | TGI [39]: 13.7 µM | TGI [46]: 7.96 µM | TGI [47]: 6.16 µM | TGI [49]: 18.8 µM | TGI [51]: 5.65 µM | TGI [52]: 8.13 µM | TGI [53]: 8.04 µM | TGI [57]: 8.8 µM | TGI [59]: 4.06 µM | TGI [63]: 14.1 µM
